In patent US20250195521A1 (Revolution Medicines, Inc., priority 2020, published 2025):

Legend:
[1] = test system: NCI-H358 cells (K-Ras G12C); experiment: CellTiter-Glo cell viability, NCI-H358; assay type: cell-based, human; conditions: Homo sapiens, NCI-H358, 120 h, K-Ras G12C, 5-day treatment; read-out: H358 Cell Viability IC50
Experimental: Note—The following protocol describes a procedure for monitoring cell viability of K-Ras mutant cancer cell lines in response to a compound of the invention. Other RAS isoforms may be employed, though the number of cells to be seeded will vary based on cell line used.
Test compounds (132.5 nl) were directly dispensed into the assay plates containing cells. […] On day 5, assay plates and their contents were equilibrated to room temperature for approximately 30 minutes. […] Luminescence was measured using the PerkinElmer Enspire. Data were normalized by the following: (Sample signal/Avg. DMSO)*100. The data were fit using a four-parameter logistic fit.

NRAS G12C = NRAS G12C (Homo sapiens (Human), UniProt P01111+P62937, G12C); experiment: Ras-Raf disruption/FRET/MOA assay (BRAF RBD, Cyclophilin A); assay type: biochemical; conditions: read-out: NRAS G12C FRET data IC50
Outline: (§1)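 Measured: compound-facilitated Cyclophilin A:Ras complex blocking RAF RBD binding. Conditions: 12.5 nM Ras-GMPPNP, 50 nM BRAF RBD, 25 μM CypA, 3 h plus 1.5 h detection. Output: IC50 from TR-FRET ratio.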

KRAS G12S = KRAS G12S (Homo sapiens (Human), UniProt P01116+P62937, G12S); experiment: as above; assay type: biochemical; conditions: read-out: KRAS G12S FRET IC50
Outline: as §1

KRAS WT = KRAS WT (Homo sapiens (Human), UniProt P01116+P62937); experiment: as above; assay type: biochemical; conditions: read-out: KRAS WT FRET data IC50
Outline: as §1

KRAS G13D = KRAS G13D (Homo sapiens (Human), UniProt P01116+P62937, G13D); experiment: as above; assay type: biochemical; conditions: read-out: KRAS G13D FRET data IC50
Outline: as §1

KRAS G12V = KRAS G12V (Homo sapiens (Human), UniProt P01116+P62937, G12V); experiment: as above; assay type: biochemical; conditions: read-out: KRAS G12V FRET IC50
Outline: as §1

KRAS G13C = KRAS G13C (Homo sapiens (Human), UniProt P01116+P62937, G13C); experiment: as above; assay type: biochemical; conditions: read-out: KRAS G13C FRET IC50
Outline: as §1

KRAS G12C = KRAS G12C (Homo sapiens (Human), UniProt P01116+P62937, G12C); experiment: as above; assay type: biochemical; conditions: read-out: KRAS G12C FRET IC50
Outline: as §1

KRAS G12D = KRAS G12D (Homo sapiens (Human), UniProt P01116+P62937, G12D); experiment: as above; assay type: biochemical; conditions: read-out: KRAS G12D FRET IC50
Outline: as §1

[2] = test system: K-Ras G12C (NCI-H358 cells); experiment: Potency assay: pERK in NCI-H358 cells; assay type: cell-based, human; conditions: Homo sapiens; NCI-H358 cells, 4 hours; read-out: pERK EC50 (H358 KRAS G12C)
Outline: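 Cells plated the day before were exposed for 4 h at 37° C, 5% CO2 to a 10-point, 3-fold DMSO dilution series (10 mM top stock), in duplicate. Phospho-ERK was read by AlphaLISA SureFire Ultra or by In-Cell Western with DRAQ5 DNA stain, and IC50 came from a 4-parameter sigmoidal fit.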

[3] = test system: Capan-1 cells (K-Ras G12V); experiment: CellTiter-Glo cell viability, Capan-1; assay type: cell-based, human; conditions: Homo sapiens, CAPAN-1, 120 h, K-Ras G12V, 5-day treatment; read-out: Capan-1 Cell Viability IC50
Outline: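 Luminescence read on day 5 after ~30 min room-temperature equilibration; compounds added directly to plated cells. Values = (sample signal/avg DMSO)*100, four-parameter logistic fit.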

KRAS G13C, sequence (P01116 other isoform, or with tags, fused parts or gaps G13C): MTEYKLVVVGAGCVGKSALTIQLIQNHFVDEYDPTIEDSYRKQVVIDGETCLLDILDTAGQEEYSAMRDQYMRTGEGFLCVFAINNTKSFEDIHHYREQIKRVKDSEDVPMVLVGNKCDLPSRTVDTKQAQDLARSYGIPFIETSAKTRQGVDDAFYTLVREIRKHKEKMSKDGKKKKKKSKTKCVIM
KRAS G13C, sequence (P62937 whole entry): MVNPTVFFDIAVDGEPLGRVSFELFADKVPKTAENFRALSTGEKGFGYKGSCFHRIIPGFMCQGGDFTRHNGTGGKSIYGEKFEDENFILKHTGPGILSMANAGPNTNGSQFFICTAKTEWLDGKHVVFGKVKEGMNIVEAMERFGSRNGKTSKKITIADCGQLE
KRAS G12C, sequence (P01116-2 other isoform, or with tags, fused parts or gaps G12C): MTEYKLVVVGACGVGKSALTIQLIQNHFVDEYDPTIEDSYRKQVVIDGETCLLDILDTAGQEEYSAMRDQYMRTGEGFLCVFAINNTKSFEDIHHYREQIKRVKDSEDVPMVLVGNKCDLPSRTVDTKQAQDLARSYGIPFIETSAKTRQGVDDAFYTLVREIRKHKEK
KRAS G12C, sequence (P62937 whole entry): as the sequence (P62937 whole entry) above
KRAS G13D, sequence (P01116 other isoform, or with tags, fused parts or gaps G13D): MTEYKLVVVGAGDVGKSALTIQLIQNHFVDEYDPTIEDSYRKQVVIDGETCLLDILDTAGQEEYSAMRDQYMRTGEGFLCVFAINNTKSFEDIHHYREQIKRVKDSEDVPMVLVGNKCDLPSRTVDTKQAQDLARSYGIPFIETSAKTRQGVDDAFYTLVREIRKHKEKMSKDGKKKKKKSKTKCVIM
KRAS G13D, sequence (P62937 whole entry): as the sequence (P62937 whole entry) above
KRAS WT, sequence (P01116 other isoform, or with tags, fused parts or gaps): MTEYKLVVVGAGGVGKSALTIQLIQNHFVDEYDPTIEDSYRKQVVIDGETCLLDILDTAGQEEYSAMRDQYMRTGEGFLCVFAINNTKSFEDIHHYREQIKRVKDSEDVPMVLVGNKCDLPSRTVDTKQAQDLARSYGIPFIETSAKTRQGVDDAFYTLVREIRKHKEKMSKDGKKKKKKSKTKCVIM
KRAS WT, sequence (P62937 whole entry): as the sequence (P62937 whole entry) above
KRAS G12V, sequence (P01116 other isoform, or with tags, fused parts or gaps G12V): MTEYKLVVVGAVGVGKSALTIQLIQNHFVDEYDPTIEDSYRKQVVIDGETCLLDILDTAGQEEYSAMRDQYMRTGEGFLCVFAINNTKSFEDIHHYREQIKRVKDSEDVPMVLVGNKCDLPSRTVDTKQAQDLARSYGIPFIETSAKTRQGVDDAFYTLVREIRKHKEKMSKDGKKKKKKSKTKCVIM
KRAS G12V, sequence (P62937 whole entry): as the sequence (P62937 whole entry) above
KRAS G12S, sequence (P01116 other isoform, or with tags, fused parts or gaps G12S): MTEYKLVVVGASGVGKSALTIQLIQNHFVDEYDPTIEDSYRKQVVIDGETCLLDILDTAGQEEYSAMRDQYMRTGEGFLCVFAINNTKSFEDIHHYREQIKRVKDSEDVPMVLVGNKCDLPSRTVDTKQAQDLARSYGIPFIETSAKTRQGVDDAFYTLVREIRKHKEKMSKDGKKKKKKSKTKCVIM
KRAS G12S, sequence (P62937 whole entry): as the sequence (P62937 whole entry) above
KRAS G12D, sequence (P01116 other isoform, or with tags, fused parts or gaps G12D): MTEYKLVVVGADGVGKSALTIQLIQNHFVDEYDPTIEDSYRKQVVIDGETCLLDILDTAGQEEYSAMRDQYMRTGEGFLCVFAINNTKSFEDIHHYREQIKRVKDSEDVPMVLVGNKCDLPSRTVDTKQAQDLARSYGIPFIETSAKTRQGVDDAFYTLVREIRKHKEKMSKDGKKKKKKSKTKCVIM
KRAS G12D, sequence (P62937 whole entry): as the sequence (P62937 whole entry) above
NRAS G12C, sequence (P01111 whole entry G12C): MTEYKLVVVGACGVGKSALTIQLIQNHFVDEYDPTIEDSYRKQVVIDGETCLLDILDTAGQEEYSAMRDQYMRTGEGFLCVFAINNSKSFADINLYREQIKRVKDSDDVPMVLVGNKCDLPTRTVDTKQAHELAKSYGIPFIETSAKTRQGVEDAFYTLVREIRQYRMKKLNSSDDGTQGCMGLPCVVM
NRAS G12C, sequence (P62937 whole entry): as the sequence (P62937 whole entry) above

| SMILES | IC50 [1] [µM] | IC50 (NRAS G12C) [µM] | IC50 (KRAS G12S) [µM] | IC50 (KRAS WT) [µM] | IC50 (KRAS G13D) [µM] | IC50 (KRAS G12V) [µM] | IC50 (KRAS G13C) [µM] | IC50 (KRAS G12C) [µM] | IC50 (KRAS G12D) [µM] | EC50 [2] [µM] | IC50 [3] [µM] |
| --- | --- | --- | --- | --- | --- | --- | --- | --- | --- | --- | --- |
| CCn1c(-c2cnccc2COC)c2c3cc(ccc31)-c1cc(O)cc(c1)C[C@H](NC(=O)[C@H](C(C)C)N(C)C(=O)[C@H]1CCN(C(=O)C(C)(C)N)C1)C(=O)N1CCC[C@H](N1)C(=O)OCC(C)(C)C2 [Compound A15] | 1 to 10 | 0.1 to 1 | 0.1 to 1 | 0.1 to 1 | 0.1 to 1 | 0.1 to 1 | 0.1 to 1 | 0.01 to 0.1 | 0.1 to 1 |  |  |
| CCn1c(-c2cnccc2COC)c2c3cc(ccc31)-c1cc(O)cc(c1)C[C@H](NC(=O)[C@H](C(C)C)N(C)C(=O)N1CCN(C)CC1)C(=O)N1CCC[C@H](N1)C(=O)OCC(C)(C)C2 [Compound A46] | 1 to 10 | 0.1 to 1 | 0.1 to 1 | 0.1 to 1 | 0.1 to 1 | 1 to 10 | 0.1 to 1 | 0.1 to 1 | 1 to 10 |  |  |
| CCn1c(-c2cnccc2COC)c2c3cc(ccc31)-c1cc(O)cc(c1)C[C@H](NC(=O)[C@H](C(C)C)N(C)C(=O)[C@H]1CCN(C3COC3)C1)C(=O)N1CCC[C@H](N1)C(=O)OCC(C)(C)C2 [Compound A51] | 1 to 10 | 1 to 10 | 0.1 to 1 | 0.1 to 1 | 0.1 to 1 | 1 to 10 | 0.1 to 1 | 0.1 to 1 | 1 to 10 | < 5 |  |
| CCn1c(-c2cnccc2COC)c2c3cc(ccc31)-c1cc(O)cc(c1)C[C@H](NC(=O)[C@H](C(C)C)N(C)c1ncco1)C(=O)N1CCC[C@H](N1)C(=O)OCC(C)(C)C2 [Compound A52] | 1 to 10 | 1 to 10 | 1 to 10 | 1 to 10 | 1 to 10 | 1 to 10 | 1 to 10 | 0.1 to 1 | > 10 |  |  |
| CCn1c(-c2cnccc2COC)c2c3cc(ccc31)-c1cc(O)cc(c1)C[C@H](NC(=O)[C@@H](NC(=O)c1ncco1)C(C)C)C(=O)N1CCC[C@H](N1)C(=O)OCC(C)(C)C2 [Compound A56] | > 10 | 1 to 10 | 1 to 10 | 1 to 10 | 1 to 10 | 1 to 10 | 1 to 10 | 1 to 10 | > 10 | < 5 |  |
| CCn1c(-c2cnccc2COC)c2c3cc(ccc31)-c1cc(O)cc(c1)C[C@H](NC(=O)[C@@H](OC(=O)N1CCCC1)C(C)C)C(=O)N1CCC[C@H](N1)C(=O)OCC(C)(C)C2 [Compound A59] | 1 to 10 | 1 to 10 | 1 to 10 | 1 to 10 | 1 to 10 | 1 to 10 | > 10 | 1 to 10 | > 10 |  |  |
| CCn1c(-c2cnccc2COC)c2c3cc(ccc31)-c1cc(O)cc(c1)C[C@H](NC(=O)[C@H](C(C)C)N(C)C(=O)CN/C(N)=N/C#N)C(=O)N1CCC[C@H](N1)C(=O)OCC(C)(C)C2 [Compound A62] | > 10 | 0.1 to 1 | 0.1 to 1 | 0.1 to 1 | 0.1 to 1 | 0.1 to 1 | 0.1 to 1 | 0.01 to 0.1 | 0.1 to 1 |  |  |
| CCn1c(-c2cnccc2COC)c2c3cc(ccc31)-c1cc(O)cc(c1)C[C@H](NC(=O)[C@H](C(C)C)N(C)c1cnc(N)[nH]c1=O)C(=O)N1CCC[C@H](N1)C(=O)OCC(C)(C)C2 [Compound A63] | > 10 | 1 to 10 | 1 to 10 | 1 to 10 | 1 to 10 | 1 to 10 | 1 to 10 | 1 to 10 | > 10 |  |  |
| CCn1c(-c2cnccc2COC)c2c3cc(ccc31)-c1cc(O)cc(c1)C[C@H](NC(=O)[C@H](C(C)C)N(C)C(=O)CCCCN)C(=O)N1CCC[C@H](N1)C(=O)OCC(C)(C)C2 [Compound A66] | 1 to 10 | 0.1 to 1 | 0.1 to 1 | 0.1 to 1 | 0.1 to 1 | 1 to 10 | 0.1 to 1 | 0.1 to 1 | 0.1 to 1 |  |  |
| CCn1c(-c2cnccc2COC)c2c3cc(ccc31)-c1cc(O)cc(c1)C[C@H](NC(=O)[C@H](C(C)C)N(C)C(=O)O[C@@H]1CCOC1)C(=O)N1CCC[C@H](N1)C(=O)OCC(C)(C)C2 [Compound A82] | 1 to 10 | 1 to 10 | 1 to 10 | 0.1 to 1 | 1 to 10 | 1 to 10 | 0.1 to 1 | 0.1 to 1 | 1 to 10 |  | 1 to 10 |
| CCn1c(-c2cccnc2[C@H](C)OC)c2c3cc(ccc31)-c1cc(O)cc(c1)C[C@H](NC(=O)[C@H](C(C)C)N(C)C(=O)[C@H]1[C@@H]3CNC[C@@H]31)C(=O)N1CCC[C@H](N1)C(=O)OCC(C)(C)C2 [Compound A163] | 1 to 10 | 0.1 to 1 | 0.1 to 1 | 0.1 to 1 | 0.01 to 0.1 | 1 to 10 | 0.1 to 1 | 0.1 to 1 | 0.1 to 1 |  | > 10 |
| CCn1c(-c2cccnc2[C@H](C)OC)c2c3cc(ccc31)-c1cc(O)cc(c1)C[C@H](NC(=O)[C@H](C(C)C)N(C)C(=O)[C@H]1CCN(C(=O)CCc3ccccc3)C1)C(=O)N1CCC[C@H](N1)C(=O)OCC(C)(C)C2 [Compound A201] | 0.1 to 1 | 0.01 to 0.1 | 0.1 to 1 | 0.1 to 1 | 0.1 to 1 | 0.01 to 0.1 | 0.01 to 0.1 | 0.01 to 0.1 | 0.1 to 1 |  | 0.1 to 1 |
| CCn1c(-c2cccnc2[C@H](C)OC)c2c3cc(ccc31)-c1cc(O)cc(c1)C[C@H](NC(=O)[C@H](C(C)C)N(C)C(=O)[C@H]1CCN(C(=O)C(C)(C)NC)C1)C(=O)N1CCC[C@H](N1)C(=O)OCC(C)(C)C2 [Compound A381] | 0.1 to 1 | 0.01 to 0.1 | 0.01 to 0.1 | 0.01 to 0.1 | 0.01 to 0.1 | 0.1 to 1 |  | 0.01 to 0.1 | 0.01 to 0.1 |  | 1 to 10 |
